Assay results: patent US5958938A, “Bis-pyrido[4,3-b]carbazole compounds” (Adir et Compagnie, priority 1997, dated 1999)
pIC50: −log10 of the molar value. Read-outs that look alike come from different tables or passages of the source.

Key:
murine leukaemia, L 1210 = test: Cytotoxicity, Microculture Tetrazolium Assay, L 1210; format: cell-based; conditions: Mus musculus, L1210, 48 h, read-out: IC50 (cytotoxicity)
From the text: (§1) Three cell lines were used:
(§2) The cells are distributed on microplates and exposed to the cytotoxic compounds.

B 16 (murine melanoma) = test: In vivo anti-tumor activity, B 16 i.p.; parameters: species or system BDF1 mouse; conditions: for % T/C / Long-term survivors/total no. of mice: D1-9, i.p.; for Long-term survivors/total no. of mice: survivors at 90 days
Procedure: Line B 16 (murine melanoma) is supplied by The National Cancer Institute (Frederick, USA). The tumor is maintained by successive subcutaneous grafts of tumor fragments. On day 0, the tumors are broken up and homogenised in 0.9% NaCl (1 g, of tumor in 10 ml) and 0.5 ml of the homogenate is injected into the peritoneal cavity of each BDF1 mouse. The products are administered intraperitoneally at the doses indicated once a day for 9 days (D1-9).
The anti-tumor activity is expressed as % T/C, as defined above. The animals surviving at 90 days (long-term survivors) are indicated.

P 388 (murine leukaemia) = test: In vivo anti-tumor activity, P 388 i.p.; parameters: species or system female BDF1 mice; conditions: for Long-term survivors/total no. of mice: survivors at 60 days
Procedure: Line P 388 (murine leukaemia) is supplied by The National Cancer Institute (Frederick, USA). The tumor cells (10^6 cells) are inoculated on day 0 into the peritoneal cavity of female BDF1 mice (Iffa-Credo, France) weighing from 18 to 20 g (groups of 6 or 7 animals).
The products are administered intravenously on day 1 or on days 1, 5 and 9 at the doses indicated.
The anti-tumor activity is expressed as % T/C: [formula]
The animals surviving at 60 days (long-term survivors) are indicated.

[1] = system: human pulmonary carcinoma, A 549; test: Cytotoxicity, Microculture Tetrazolium Assay, A 549; format: cell-based; conditions: for pIC50: Homo sapiens, A549, 96 h, read-out: IC50 (cytotoxicity)
From the text: as §1, §2

murine melanoma, B 16 = test: Cytotoxicity, Microculture Tetrazolium Assay, B 16; format: cell-based; conditions: for pIC50: Mus musculus, read-out: IC50 (cytotoxicity)
From the text: as §1, §2

[2] = D1,5,9, i.v., optimum dose 10 mg/kg
[3] = D1, i.v., optimum dose 10 mg/kg
[4] = B16, 96 h, B 16, 4 days incubation
[5] = D1,5,9, i.v., optimum dose 80 mg/kg
[6] = D1, i.v., optimum dose 80 mg/kg

## Cc1c2c(C(=O)NCCN(C)C)nccc2c(C)c2c1c1cc(OC(=O)CCCCC(=O)Oc3ccc4c(c3)c3c(C)c5c(C(=O)NCCN(C)C)nccc5c(C)c3n4C)ccc1n2C [Example 1, bis[1-(2-dimethylaminoethylcarbamoyl)-5,6, 11-trimethyl-6H-pyrido[4,3-b]carbazol-9-yl] ester of hexanedloic acid]
Murine leukaemia, L 1210; L 1210, 2 days incubation
  pIC50: 7.13
B 16 (murine melanoma); optimum dose 5 mg/kg
  % T/C: 429%
  Long-term survivors/total no. of mice: 3/7
B 16 (murine melanoma); melanoma B 16 model, at the optimum dose
  Long-term survivors: 3 long-term survivors
B 16 (murine melanoma); melanoma B 16 model, in words
  Anti-tumor activity: very active
P 388 (murine leukaemia); [2]
  % T/C: > 582%
  Long-term survivors/total no. of mice: 3/6
P 388 (murine leukaemia); [3]
  % T/C: 252%
  Long-term survivors/total no. of mice: 1/6
P 388 (murine leukaemia); leukaemia P 388 model, in words
  Anti-tumor activity compared with reference product A: more potent than, and as active as, reference product A
[1]; A 549, in words
  Cytotoxicity compared with reference products A and B: more cytotoxic than reference products A and B
[1]; A 549 versus L 1210, in words
  Cytotoxicity compared with line L 1210: greater for lines B 16 and A 549 than for line L 1210
[1]; A 549, 4 days incubation
  pIC50: 7.75
Murine melanoma, B 16; B 16, in words
  Cytotoxicity compared with reference products A and B: more cytotoxic than reference products A and B
Murine melanoma, B 16; B 16 versus L 1210, in words
  Cytotoxicity compared with line L 1210: greater for lines B 16 and A 549 than for line L 1210
Murine melanoma, B 16; [4]
  pIC50: 8.52

## Cc1c2ccnc(C(=O)NCCN(C)C)c2cc2c3cc(O)ccc3n(C)c12 [Reference A, 1-(N,N-dimethylaminoethylaminocarbamoyl)-5,6-diiethyl-9-hydroxy-6H-pyrido-[4,3-b]carbazole, reference compound]
Murine leukaemia, L 1210; L 1210, 2 days incubation
  pIC50: 8.11
B 16 (murine melanoma); optimum dose 10 mg/kg
  % T/C: 190%
  Long-term survivors/total no. of mice: 0/7
B 16 (murine melanoma); melanoma B 16 model, in words
  Long-term survivors: none
P 388 (murine leukaemia); [5]
  % T/C: 320%
  Long-term survivors/total no. of mice: 2/6
P 388 (murine leukaemia); [6]
  % T/C: 221%
  Long-term survivors/total no. of mice: 0/6
[1]; A 549, 4 days incubation
  pIC50: 7.52
Murine melanoma, B 16; [4]
  pIC50: 8.29

## COc1cccc2c1C(=O)c1c(O)c3c(c(O)c1C2=O)C[C@@](O)(C(=O)CO)C[C@@H]3O[C@H]1C[C@H](N)[C@H](O)[C@H](C)O1 [Reference B, adriamycin, reference compound]
Murine leukaemia, L 1210
  pIC50: 7.61
[1]
  pIC50: 7.40
Murine melanoma, B 16; 96 h
  pIC50: 8.17
